# How the values were obtained:
# Experiment in all cases: Kinase panel study
# Assay type in all cases: biochemical
# Conditions in all cases: read-out: Percentage of inhibition; for inhibition at 1 µM: 1000nM; for inhibition at 10 µM: 10000nM
# CAMK2B (CaMKII beta) = target: T1, CAMK2B (CaMKII beta) (Homo sapiens, UniProt Q13554)
# T1 construct: purchased Thermo Fisher Scientific
# In short: (§1)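 Lead compounds and derivatives were profiled by ZLyte or Adapta in vitro kinase assays. Each value reports inhibition percentage at one of two concentrations, 1 µM or 10 µM.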
# CDK4/cyclin D1 = target: T2, CDK4/cyclin D1 (Homo sapiens, UniProt P11802)
# T2 construct: purchased Thermo Fisher Scientific
# In short: as §1
# CDK4/cyclin D3 = target: T3, CDK4/cyclin D3 (Homo sapiens, UniProt P11802)
# T3 construct: purchased Thermo Fisher Scientific
# In short: as §1
# CDK6/cyclin D1 = target: T4, CDK6/cyclin D1 (Homo sapiens, UniProt Q00534)
# T4 construct: purchased Thermo Fisher Scientific
# In short: as §1
# EGFR (ErbB1) L861Q = target: T5, EGFR (ErbB1) L861Q (Homo sapiens, UniProt P00533, L861Q)
# T5 construct: purchased Thermo Fisher Scientific
# In short: as §1
# LRRK2 I2020T = target: T6, LRRK2 I2020T (Homo sapiens, UniProt Q5S007, I2020T)
# T6 construct: purchased Thermo Fisher Scientific
# In short: as §1
# MARK1 (MARK) = target: T7, MARK1 (MARK) (Homo sapiens, UniProt Q9P0L2)
# T7 construct: purchased Thermo Fisher Scientific
# In short: as §1
# MARK2 = target: T8, MARK2 (Homo sapiens, UniProt Q7KZI7)
# T8 construct: purchased Thermo Fisher Scientific
# In short: as §1
# MELK = target: T9, MELK (Homo sapiens, UniProt Q14680)
# T9 construct: purchased Thermo Fisher Scientific
# In short: as §1
# PIM2 = target: T10, PIM2 (Homo sapiens, UniProt Q9P1W9)
# T10 construct: purchased Thermo Fisher Scientific
# In short: as §1
# PRKCI (PKC iota) = target: T11, PRKCI (PKC iota) (Homo sapiens, UniProt P41743)
# T11 construct: purchased Thermo Fisher Scientific
# T11 sequence (P41743 1-596): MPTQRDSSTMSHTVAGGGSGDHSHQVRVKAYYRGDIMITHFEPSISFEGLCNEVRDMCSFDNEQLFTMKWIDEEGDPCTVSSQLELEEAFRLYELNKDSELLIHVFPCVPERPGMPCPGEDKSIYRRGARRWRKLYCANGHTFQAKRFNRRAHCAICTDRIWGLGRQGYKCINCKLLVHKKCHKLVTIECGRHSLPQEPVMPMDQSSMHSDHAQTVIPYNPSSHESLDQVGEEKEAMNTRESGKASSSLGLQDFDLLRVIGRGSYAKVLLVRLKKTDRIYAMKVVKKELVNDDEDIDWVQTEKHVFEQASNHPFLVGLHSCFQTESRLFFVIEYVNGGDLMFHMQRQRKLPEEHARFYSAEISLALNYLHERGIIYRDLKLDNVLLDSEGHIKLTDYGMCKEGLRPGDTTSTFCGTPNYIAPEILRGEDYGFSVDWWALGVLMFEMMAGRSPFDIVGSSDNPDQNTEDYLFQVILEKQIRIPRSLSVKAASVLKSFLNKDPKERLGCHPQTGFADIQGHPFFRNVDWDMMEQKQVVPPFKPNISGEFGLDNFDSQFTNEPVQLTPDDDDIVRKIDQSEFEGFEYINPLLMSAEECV
# In short: as §1
# SRC = target: T12, SRC (Homo sapiens, UniProt P12931)
# T12 construct: purchased Thermo Fisher Scientific
# In short: as §1
# ZAP70 = target: T13, ZAP70 (Homo sapiens, UniProt P43403)
# T13 construct: purchased Thermo Fisher Scientific
# T13 sequence (P43403 1-619): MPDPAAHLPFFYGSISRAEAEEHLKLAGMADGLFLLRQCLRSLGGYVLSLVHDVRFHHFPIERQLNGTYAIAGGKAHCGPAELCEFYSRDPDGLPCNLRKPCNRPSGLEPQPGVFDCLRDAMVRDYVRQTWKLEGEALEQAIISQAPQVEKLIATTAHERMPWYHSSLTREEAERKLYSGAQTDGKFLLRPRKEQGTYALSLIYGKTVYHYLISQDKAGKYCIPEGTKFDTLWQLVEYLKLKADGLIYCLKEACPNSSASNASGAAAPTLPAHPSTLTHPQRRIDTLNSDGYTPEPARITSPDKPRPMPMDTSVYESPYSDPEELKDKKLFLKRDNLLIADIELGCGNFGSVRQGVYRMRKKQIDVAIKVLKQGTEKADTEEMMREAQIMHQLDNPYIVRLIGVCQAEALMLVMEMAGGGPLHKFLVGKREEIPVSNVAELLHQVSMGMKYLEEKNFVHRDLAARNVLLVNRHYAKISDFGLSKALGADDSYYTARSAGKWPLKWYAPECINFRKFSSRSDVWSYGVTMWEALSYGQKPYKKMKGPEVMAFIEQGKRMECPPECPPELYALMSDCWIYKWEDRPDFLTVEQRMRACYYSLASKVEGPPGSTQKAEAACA
# In short: as §1
# T5 sequence (P00533 25-1210 L861Q): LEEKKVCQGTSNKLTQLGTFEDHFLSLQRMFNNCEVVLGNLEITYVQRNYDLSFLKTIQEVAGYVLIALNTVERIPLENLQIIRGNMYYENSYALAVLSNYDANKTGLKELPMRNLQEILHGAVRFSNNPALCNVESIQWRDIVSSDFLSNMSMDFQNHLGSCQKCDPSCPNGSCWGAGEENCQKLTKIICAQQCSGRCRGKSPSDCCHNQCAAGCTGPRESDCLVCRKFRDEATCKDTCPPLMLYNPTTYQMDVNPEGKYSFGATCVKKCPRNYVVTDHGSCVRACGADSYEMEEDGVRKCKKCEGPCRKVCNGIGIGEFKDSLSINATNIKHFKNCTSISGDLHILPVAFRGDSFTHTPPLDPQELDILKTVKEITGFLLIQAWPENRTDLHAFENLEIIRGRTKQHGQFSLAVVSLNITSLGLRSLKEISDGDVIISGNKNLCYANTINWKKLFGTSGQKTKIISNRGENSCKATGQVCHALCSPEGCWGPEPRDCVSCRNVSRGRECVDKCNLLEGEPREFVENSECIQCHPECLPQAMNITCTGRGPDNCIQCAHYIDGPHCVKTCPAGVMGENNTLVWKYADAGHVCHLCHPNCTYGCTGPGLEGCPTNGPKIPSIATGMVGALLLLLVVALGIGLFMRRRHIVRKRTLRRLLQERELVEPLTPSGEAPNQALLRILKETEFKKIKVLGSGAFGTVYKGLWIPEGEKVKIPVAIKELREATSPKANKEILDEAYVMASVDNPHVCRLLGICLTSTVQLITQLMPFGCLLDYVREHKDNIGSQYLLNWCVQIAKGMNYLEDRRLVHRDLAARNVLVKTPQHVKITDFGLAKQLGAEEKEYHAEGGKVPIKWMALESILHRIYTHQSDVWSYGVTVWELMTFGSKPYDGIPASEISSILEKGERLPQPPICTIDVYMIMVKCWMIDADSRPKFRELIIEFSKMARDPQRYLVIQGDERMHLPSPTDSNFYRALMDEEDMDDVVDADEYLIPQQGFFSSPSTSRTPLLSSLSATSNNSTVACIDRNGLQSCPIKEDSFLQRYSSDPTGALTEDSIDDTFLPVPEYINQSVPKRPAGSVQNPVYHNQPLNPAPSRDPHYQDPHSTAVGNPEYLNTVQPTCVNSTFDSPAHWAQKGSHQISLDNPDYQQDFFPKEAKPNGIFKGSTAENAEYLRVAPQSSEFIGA
# T6 sequence (Q5S007 970-2527 I2020T limits assumed): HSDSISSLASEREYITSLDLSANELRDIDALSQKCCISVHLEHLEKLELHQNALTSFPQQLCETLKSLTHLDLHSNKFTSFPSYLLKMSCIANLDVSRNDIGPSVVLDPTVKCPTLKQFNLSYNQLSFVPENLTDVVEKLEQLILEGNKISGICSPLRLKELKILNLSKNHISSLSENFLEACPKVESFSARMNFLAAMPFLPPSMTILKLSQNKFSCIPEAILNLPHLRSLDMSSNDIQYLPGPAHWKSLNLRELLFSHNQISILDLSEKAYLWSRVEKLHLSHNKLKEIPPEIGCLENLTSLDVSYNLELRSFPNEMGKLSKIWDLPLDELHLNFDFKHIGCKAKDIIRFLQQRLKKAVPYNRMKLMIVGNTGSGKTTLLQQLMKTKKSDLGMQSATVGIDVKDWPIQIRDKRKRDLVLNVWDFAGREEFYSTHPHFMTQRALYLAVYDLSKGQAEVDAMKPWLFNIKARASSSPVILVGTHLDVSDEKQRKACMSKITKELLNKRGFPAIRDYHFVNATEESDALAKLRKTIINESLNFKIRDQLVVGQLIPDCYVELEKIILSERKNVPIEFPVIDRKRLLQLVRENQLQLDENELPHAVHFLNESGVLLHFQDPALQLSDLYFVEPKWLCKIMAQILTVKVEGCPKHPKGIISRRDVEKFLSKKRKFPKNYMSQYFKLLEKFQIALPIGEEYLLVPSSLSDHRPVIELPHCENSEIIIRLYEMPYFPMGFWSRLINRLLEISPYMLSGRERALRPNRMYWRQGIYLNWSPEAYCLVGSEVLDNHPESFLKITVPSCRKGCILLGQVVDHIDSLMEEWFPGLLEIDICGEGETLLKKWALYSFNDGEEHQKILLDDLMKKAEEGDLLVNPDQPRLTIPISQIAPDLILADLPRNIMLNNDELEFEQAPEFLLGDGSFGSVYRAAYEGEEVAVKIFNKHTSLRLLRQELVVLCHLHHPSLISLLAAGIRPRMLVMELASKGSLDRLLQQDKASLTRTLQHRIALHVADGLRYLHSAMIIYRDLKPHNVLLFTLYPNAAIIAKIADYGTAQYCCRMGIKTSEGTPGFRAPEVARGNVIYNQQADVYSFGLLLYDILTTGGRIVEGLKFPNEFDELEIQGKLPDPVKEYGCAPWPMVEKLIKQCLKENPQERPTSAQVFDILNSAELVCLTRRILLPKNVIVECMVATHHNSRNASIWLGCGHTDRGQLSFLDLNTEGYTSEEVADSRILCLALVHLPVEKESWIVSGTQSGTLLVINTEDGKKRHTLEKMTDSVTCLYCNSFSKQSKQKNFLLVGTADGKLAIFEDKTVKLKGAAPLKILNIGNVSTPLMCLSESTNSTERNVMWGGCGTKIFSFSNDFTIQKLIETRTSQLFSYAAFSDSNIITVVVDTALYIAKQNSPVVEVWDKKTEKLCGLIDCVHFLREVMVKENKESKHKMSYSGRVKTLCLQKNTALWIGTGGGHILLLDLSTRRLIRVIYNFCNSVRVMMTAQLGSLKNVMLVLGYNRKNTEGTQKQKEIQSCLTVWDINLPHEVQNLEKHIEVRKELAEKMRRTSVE
# T8 sequence (Q7KZI7 whole entry): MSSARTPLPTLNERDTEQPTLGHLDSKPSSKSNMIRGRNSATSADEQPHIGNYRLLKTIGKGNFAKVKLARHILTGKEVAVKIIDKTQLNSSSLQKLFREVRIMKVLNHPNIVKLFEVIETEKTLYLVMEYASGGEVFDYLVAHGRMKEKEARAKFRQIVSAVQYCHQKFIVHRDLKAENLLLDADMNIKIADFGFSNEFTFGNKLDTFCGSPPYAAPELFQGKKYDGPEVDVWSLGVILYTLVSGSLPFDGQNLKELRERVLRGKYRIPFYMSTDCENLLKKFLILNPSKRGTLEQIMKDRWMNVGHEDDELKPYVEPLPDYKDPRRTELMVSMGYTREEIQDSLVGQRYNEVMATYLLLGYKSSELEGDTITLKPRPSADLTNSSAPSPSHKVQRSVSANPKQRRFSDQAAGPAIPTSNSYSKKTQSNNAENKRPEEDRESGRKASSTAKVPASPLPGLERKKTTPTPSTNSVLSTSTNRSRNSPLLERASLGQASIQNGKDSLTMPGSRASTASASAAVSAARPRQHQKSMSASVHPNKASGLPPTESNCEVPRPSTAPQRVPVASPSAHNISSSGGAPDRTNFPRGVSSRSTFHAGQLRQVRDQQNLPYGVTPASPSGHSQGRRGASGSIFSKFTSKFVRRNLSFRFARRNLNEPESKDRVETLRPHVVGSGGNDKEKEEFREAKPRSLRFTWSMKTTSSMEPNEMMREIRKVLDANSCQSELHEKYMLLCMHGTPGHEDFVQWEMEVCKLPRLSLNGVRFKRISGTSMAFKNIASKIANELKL
# T10 sequence (Q9P1W9 whole entry): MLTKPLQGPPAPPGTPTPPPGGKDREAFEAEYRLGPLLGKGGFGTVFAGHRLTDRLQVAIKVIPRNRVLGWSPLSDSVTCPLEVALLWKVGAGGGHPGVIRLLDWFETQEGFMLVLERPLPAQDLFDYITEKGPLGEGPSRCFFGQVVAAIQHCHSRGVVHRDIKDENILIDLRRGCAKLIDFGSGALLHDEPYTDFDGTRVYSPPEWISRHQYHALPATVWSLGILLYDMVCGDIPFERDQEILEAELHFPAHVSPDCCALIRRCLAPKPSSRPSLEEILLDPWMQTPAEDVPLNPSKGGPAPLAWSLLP
# T4 sequence (Q00534 whole entry): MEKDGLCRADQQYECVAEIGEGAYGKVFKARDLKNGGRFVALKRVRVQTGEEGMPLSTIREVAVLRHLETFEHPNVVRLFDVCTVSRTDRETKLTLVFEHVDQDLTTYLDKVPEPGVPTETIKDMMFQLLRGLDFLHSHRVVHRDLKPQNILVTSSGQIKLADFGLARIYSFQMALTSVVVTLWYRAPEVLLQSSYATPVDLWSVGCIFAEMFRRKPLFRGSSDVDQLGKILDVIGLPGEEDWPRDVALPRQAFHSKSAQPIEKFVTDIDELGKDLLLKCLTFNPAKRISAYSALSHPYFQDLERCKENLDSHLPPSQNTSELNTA
# T4 sequence (P24385 whole entry partner): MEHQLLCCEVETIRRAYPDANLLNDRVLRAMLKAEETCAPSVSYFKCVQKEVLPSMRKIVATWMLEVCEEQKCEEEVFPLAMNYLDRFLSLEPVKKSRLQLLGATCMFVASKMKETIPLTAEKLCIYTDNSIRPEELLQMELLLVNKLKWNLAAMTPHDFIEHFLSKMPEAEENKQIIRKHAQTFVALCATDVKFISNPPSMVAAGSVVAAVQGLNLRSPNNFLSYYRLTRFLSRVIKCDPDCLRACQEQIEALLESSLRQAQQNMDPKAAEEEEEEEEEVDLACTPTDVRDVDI
# T12 sequence (P12931 whole entry): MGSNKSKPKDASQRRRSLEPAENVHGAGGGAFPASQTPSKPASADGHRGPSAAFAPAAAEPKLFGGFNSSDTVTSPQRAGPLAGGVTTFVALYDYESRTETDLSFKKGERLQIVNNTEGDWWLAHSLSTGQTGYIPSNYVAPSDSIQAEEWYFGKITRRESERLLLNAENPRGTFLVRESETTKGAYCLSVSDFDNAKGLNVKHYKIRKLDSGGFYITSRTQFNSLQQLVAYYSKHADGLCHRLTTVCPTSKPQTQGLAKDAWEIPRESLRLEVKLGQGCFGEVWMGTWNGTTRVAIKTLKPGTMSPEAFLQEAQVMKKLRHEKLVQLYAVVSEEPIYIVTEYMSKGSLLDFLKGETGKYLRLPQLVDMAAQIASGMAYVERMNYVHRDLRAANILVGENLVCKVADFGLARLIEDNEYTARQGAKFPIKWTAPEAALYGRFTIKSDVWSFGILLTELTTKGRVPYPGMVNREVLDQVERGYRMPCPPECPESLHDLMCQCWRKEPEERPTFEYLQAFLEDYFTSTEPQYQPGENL
Structure (SMILES),inhibition at 1 µM (CAMK2B (CaMKII beta)) [%],inhibition at 10 µM (CAMK2B (CaMKII beta)) [%],inhibition at 1 µM (CDK4/cyclin D1) [%],inhibition at 10 µM (CDK4/cyclin D1) [%],inhibition at 1 µM (CDK4/cyclin D3) [%],inhibition at 10 µM (CDK4/cyclin D3) [%],inhibition at 1 µM (CDK6/cyclin D1) [%],inhibition at 10 µM (CDK6/cyclin D1) [%],inhibition at 1 µM (EGFR (ErbB1) L861Q) [%],inhibition at 10 µM (EGFR (ErbB1) L861Q) [%],inhibition at 1 µM (LRRK2 I2020T) [%],inhibition at 10 µM (LRRK2 I2020T) [%],inhibition at 1 µM (MARK1 (MARK)) [%],inhibition at 10 µM (MARK1 (MARK)) [%],inhibition at 1 µM (MARK2) [%],inhibition at 10 µM (MARK2) [%],inhibition at 1 µM (MELK) [%],inhibition at 10 µM (MELK) [%],inhibition at 1 µM (PIM2) [%],inhibition at 10 µM (PIM2) [%],also measured
"COc1ccc2c(c1OC)c(=O)n1c3ccc(O)cc3c3ccnc2c31 [MW01, 5-Hydroxy-10,11-dimethoxy-9H-benzo[c]indolo[3,2,1-ij][1,5]naphthyridin-9-one]",9,37,-8,-4,-2,-6,1,-8,-9,8,83,90,4,6,10,5,26,54,6,13,inhibition at 1 µM (PRKCI (PKC iota)): 4%; inhibition at 10 µM (PRKCI (PKC iota)): -8%; inhibition at 1 µM (SRC): 0%; inhibition at 10 µM (SRC): 16%; inhibition at 1 µM (ZAP70): 12%; inhibition at 10 µM (ZAP70): 16%
"COc1ccc2cc3c(N)nn(C(=O)c4cccc(N(C)C)c4)c3nc2c1 [MW05, (3-Amino-7-methoxypyrazolo[3,4-b]quinolin-1-yl)-[3-(dimethylamino)phenyl]methanone]",5,3,-3,-1,-6,-8,2,0,-6,-18,-3,5,3,-5,3,5,28,48,-1,-3,inhibition at 1 µM (PRKCI (PKC iota)): 20%; inhibition at 10 µM (PRKCI (PKC iota)): 6%; inhibition at 1 µM (SRC): 6%; inhibition at 10 µM (SRC): 3%; inhibition at 1 µM (ZAP70): 15%; inhibition at 10 µM (ZAP70): 11%

# — patent EP4467141A1, “PYRAZOLO-QUINOLINES AS SELECTIVE INHIBITORS OF GENOTOXIC STRESS-INDUCED IKK/NF- KB PATHWAYS FOR CANCER THERAPY” (Max-Delbrück-Centrum für Molekulare Medizin in der …, priority 2023, dated 2024)
